In patent US20220235064A1 (WELLMARKER BIO CO., LTD., priority 2019, published 2022) one finds cytotoxicity and IC50 data, which are given here for 18 molecules.

The test system of test [1] is cancer cell line KM12C, in which RON is activated. The test is described as follows: Cell-killing efficacy in RON-activated cancer cell line (trypan blue). Format: cell-based. The following applies: Homo sapiens, 48 hours, trypan blue, n=2, read-out: Cell death (%) Cancer cell line KM12C. How it is done: Experimental Example 3: Measurement of Cell-Killing Efficacy of Example Compounds in RON-Activated Cancer Cell Line
The cancer cell line KM12C (80015, KCLB, MEM+10% FBS), in which RON is activated, was dispensed into each 60 mm^2 dish at 1×10^5 cells. After 24 hours, the dish was treated with each of the example compounds at a concentration of 1 μM or 5 μM while performing medium exchange, and then reaction was allowed to proceed for 48 hours. After 48 hours, centrifugation was performed for 4 minutes at 1,500 rpm to collect cells and cell fluid. Thereafter, living cells and dead cells were quantified (n=2) using a trypan blue solution (15250-061, Gibco), and statistical analysis was performed using Excel-T-test. Here, as a negative control, only a solvent (0.100 DMSO) was used; and as a positive control, N-(4-(2-amino-3-chloropyridin-4-yloxy)-3-fluorophenyl)-4-ethoxy-1-(4-fluorophenyl)-2-oxo-1,2-dihydropyridine-3-carboxamide, which is the compound of Example 1 in WO 2008/058229 A1, was used.

Test [2] has as its target T1, RON tyrosine kinase (Homo sapiens, UniProt Q04912).
T1 construct: purchased Carna Bioscience
In words: Enzyme inhibitory activity against RON tyrosine kinase (TR-FRET). Format: biochemical. The note with it: RON (Carna Bioscience). The protocol: Experimental Example 1: Measurement of Enzyme Inhibitory Activity Against RON Tyrosine Kinase
To measure enzyme inhibitory activity of the example compounds against RON, IC50 values of the compounds were measured using fluorescence resonance energy transfer (FRET).
Specifically, first, RON (Carna Bioscience) was diluted in a kinase assay buffer (50 mM HEPES pH 7.5, 1 mM EGTA, 10 mM MgCl2, 2 mM DTT, and 0.01% Tween-20) to be at a concentration (0.4 nM) that is twice the final reaction concentration. The dilute was added to a 384-well-plate at 5 μl per well. Each of the example compounds was prepared at a concentration of 1 mM in 100% DMSO and diluted 8 times in a stepwise manner through 10-fold dilution. Each compound was diluted in a kinase assay buffer to be at a concentration that is 4 times the final reaction concentration. The dilute was added to a 384-well-plate at 2.5 μl per well, and incubation was performed at room temperature for 15 minutes.
Thereafter, an ATP solution (Sigma Aldrich) prepared at a concentration of 0.25 M was diluted in a kinase assay buffer to be at a concentration (60 μM) that is 4 times the final reaction concentration. Dilution of a tyrosine peptide substrate (Perkin-Elmer) was performed therein to be at a concentration (400 nM) that is 4 times the final reaction concentration. The dilute was added to a 384-well-plate at 2.5 µl per well. Reaction was allowed to proceed for 60 minutes by incubating the 384-well-plate at room temperature. Thereafter, EDTA (Sigma Aldrich) was diluted in a TR-FRET detection buffer (Perkin-Elmer) to be at a concentration (20 mM) that is twice the final reaction concentration. Dilution of a Europium-containing phosphotyrosine antibody (Perkin-Elmer) was performed in the diluted EDTA solution to be at a concentration (4 nM) that is twice the final reaction concentration, so that a stop solution for RON reaction was prepared.
The stop solution was added to the 384-well-plate at 10 μl per well to quench the reaction, and incubation was performed at room temperature for 60 minutes. Then, the 384-well-plate was read on a Victor X5 (Perkin-Elmer) plate reader. Here, the excitation wavelength was 340 nm, and the emission wavelengths were 620 nm and 665 nm. An IC50 value of the compound was derived using GraphPad Prism 5 program, in which the IC50 was derived by expressing emission energy at the wavelength of 665 nm as a function of the compound concentration.
(In TR-FRET formats the signal depends on donor and acceptor labels being close together.)

T1 sequence (Q04912 25-1400): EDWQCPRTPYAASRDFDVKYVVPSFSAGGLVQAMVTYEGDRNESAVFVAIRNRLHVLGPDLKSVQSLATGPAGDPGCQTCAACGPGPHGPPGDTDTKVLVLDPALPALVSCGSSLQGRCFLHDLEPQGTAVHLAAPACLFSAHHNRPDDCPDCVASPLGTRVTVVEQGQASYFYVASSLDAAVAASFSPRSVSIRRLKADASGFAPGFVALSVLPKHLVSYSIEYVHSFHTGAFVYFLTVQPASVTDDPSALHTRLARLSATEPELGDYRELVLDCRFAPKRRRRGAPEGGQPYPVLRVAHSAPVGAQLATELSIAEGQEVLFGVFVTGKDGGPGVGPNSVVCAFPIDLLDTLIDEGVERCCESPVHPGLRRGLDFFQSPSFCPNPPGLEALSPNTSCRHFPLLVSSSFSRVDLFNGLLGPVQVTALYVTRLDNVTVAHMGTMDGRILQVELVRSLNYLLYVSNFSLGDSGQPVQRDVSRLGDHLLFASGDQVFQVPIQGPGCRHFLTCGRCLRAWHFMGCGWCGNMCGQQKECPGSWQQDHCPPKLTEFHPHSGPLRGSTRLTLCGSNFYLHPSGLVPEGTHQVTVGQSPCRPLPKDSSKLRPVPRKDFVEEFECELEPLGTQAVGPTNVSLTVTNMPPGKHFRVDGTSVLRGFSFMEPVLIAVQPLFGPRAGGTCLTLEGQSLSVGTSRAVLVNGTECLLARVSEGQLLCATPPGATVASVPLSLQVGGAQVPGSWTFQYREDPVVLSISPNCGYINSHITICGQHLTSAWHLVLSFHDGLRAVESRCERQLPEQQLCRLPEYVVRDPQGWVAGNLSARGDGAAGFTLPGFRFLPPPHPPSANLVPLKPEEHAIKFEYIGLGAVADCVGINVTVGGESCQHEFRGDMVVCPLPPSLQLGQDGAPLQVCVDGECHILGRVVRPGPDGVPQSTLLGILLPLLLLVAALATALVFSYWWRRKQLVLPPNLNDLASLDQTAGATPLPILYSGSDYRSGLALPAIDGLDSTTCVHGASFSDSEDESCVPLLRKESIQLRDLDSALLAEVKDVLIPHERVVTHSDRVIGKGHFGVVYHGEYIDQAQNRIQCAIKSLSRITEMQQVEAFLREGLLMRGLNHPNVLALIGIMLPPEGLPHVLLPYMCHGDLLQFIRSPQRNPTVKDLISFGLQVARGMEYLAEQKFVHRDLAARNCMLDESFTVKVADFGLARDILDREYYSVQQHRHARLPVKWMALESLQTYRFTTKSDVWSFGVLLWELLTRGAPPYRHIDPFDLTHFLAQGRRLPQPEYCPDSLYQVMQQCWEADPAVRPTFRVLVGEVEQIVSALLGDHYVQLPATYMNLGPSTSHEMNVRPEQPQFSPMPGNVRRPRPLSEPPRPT

As usually defined, the IC50 is the concentration that inhibits the measured activity by half. High values mean lower potency, low ones higher potency. Regarding `COc1ccc2nccc(Oc3ccc(NC(=O)c4c5c(cn(-c6ccc(F)cc6)c4=O)CCO5)cc3F)c2c1` [Example 44, N-(3-Fluoro-4-((6-methoxyquinolin-4-yl)oxy)phenyl)-5-(4-fluorophenyl)-6-oxo-2,3,5,6-tetrahydrofuro[3,2-c]pyridine-7-carboxamide], in test [1], the cytotoxicity at 1 µM was 16% and the cytotoxicity at 5 µM was found to be 21.4%. Besides, the IC50 in test [2] was 1.87 nM.

In the case of `COc1ccc2c(Oc3ccc(NC(=O)c4c5c(cn(-c6ccc(F)cc6)c4=O)CCO5)cc3F)ccnc2c1` [Example 45, N-(3-Fluoro-4-((7-methoxyquinolin-4-yl)oxy)phenyl)-5-(4-fluorophenyl)-6-oxo-2,3,5,6-tetrahydrofuro[3,2-c]pyridine-7-carboxamide], in test [1], the cytotoxicity at 1 µM was found to be 16.3% and the cytotoxicity at 5 µM was 18.9%. In test [2], the IC50 was 1.5 nM. `O=C(Nc1ccc(Oc2ccnc3ccoc23)c(F)c1)c1c2c(cn(-c3ccc(F)cc3)c1=O)CCO2` [Example 69, N-(3-Fluoro-4-((furo[3,2-b]pyridin-7-yl)oxy)phenyl)-5-(4-fluorophenyl)-6-oxo-2,3,5,6-tetrahydrofuro[3,2-c]pyridine-7-carboxamide]: in test [2], it took 3.29 nM to reach half-maximal inhibition (IC50). Take `COc1cc2nccc(Oc3ccc(NC(=O)c4c5c(cn(-c6ccc(F)cc6)c4=O)CCO5)cc3F)c2cc1C(=O)N(C)C` [Example 49, N-(4-((6-(Dimethylcarbamoyl)-7-methoxyquinolin-4-yl)oxy)-3-fluorophenyl)-5-(4-fluorophenyl)-6-oxo-2,3,5,6-tetrahydrofuro[3,2-c]pyridine-7-carboxamide]: in test [1], the cytotoxicity at 1 µM was 9.98% and the cytotoxicity at 5 µM is 11.2%. The same molecule gave an IC50 in test [2] of 2.98 nM. In turn, `O=C(Nc1ccc(Oc2ccnc3ccnn23)c(F)c1)c1c2c(cn(-c3ccc(F)cc3)c1=O)CCO2` [Example 75, N-(3-Fluoro-4-(pyrazolo[1,5-a]pyrimidin-7-yloxy)phenyl)-5-(4-fluorophenyl)-6-oxo-2,3,5,6-tetrahydro[3,2-c]pyridine-7-carboxamide] displayed an IC50 in test [2] of 2800 nM. `Nc1nccc(Oc2ccc(NC(=O)c3c4c(cn(-c5ccc(F)cc5)c3=O)CCO4)cc2F)n1` [Example 57, N-(4-((2-Aminopyrimidin-4-yl)oxy)-3-fluorophenyl)-5-(4-fluorophenyl)-6-oxo-2,3,5,6-tetrahydrofuro[3,2-c]pyridine-7-carboxamide] yielded an IC50 in test [2] of 18.2 nM. As to `NC(=O)c1nccc(Oc2ccc(NC(=O)c3c4c(cn(-c5ccc(F)cc5)c3=O)CCO4)cc2F)c1Cl` [Example 54, N-(4-((2-Carbamoyl-3-chloropyridin-4-yl)oxy)-3-fluorophenyl)-5-(4-fluorophenyl)-6-oxo-2,3,5,6-tetrahydrofuro[3,2-c]pyridine-7-carboxamide], in test [2], the concentration for half-maximal inhibition (IC50) was more than 1000 nM. With `Nc1cc(Oc2ccc(NC(=O)c3c4c(cn(-c5ccc(F)cc5)c3=O)CCO4)cc2F)ncn1` [Example 58, N-(4-((6-Aminopyrimidin-4-yl)oxy)-3-fluorophenyl)-5-(4-fluorophenyl)-6-oxo-2,3,5,6-tetrahydrofuro[3,2-c]pyridine-7-carboxamide], the IC50 in test [2] worked out at 25 nM.

Regarding `CC1CCN(CCCOc2ccc3c(Oc4ccc(NC(=O)c5c6c(cn(-c7ccc(F)cc7)c5=O)CCO6)cc4F)ccnc3c2)CC1` [Example 162], in test [1], the cytotoxicity at 1 µM is 16.4% and the cytotoxicity at 5 µM amounted to 22.6%. This molecule also came in with an IC50 in test [2] of 1.18 nM. On to `O=C(Nc1ccc(Oc2ncnc3c2CCN3)c(F)c1)c1c2c(cn(-c3ccc(F)cc3)c1=O)CCO2` [Example 74, N-(4-((6,7-Dihydro-5H-pyrrolo[2,3-d]pyrimidin-4-yl)oxy)-3-fluorophenyl)-5-(4-fluorophenyl)-6-oxo-2,3,5,6-tetrahydrofuro[3,2-c]pyridine-7-carboxamide], for which the IC50 in test [2] turned out to be 9.75 nM.

In turn, `O=C(Nc1ccc(Oc2ccnc3cc(OCCCN4CCOCC4)c(C(F)(F)F)cc23)c(F)c1)c1c2c(cn(-c3ccc(F)cc3)c1=O)CCO2` [Example 170, N-(3-Fluoro-4-((7-(3-morpholinopropoxy)-6-(trifluoromethyl)quinolin-4-yl)oxy)phenyl)-5-(4-fluorophenyl)-6-oxo-2,3,5,6-tetrahydrofuro[3,2-c]pyridine-7-carboxamide] displayed an IC50 in test [2] of more than 100 nM.

For the molecule `O=C(Nc1ccc(Oc2ccnc3[nH]ncc23)c(F)c1)c1c2c(cn(-c3ccc(F)cc3)c1=O)CCO2` [Example 68, N-(4-((1H-pyrazolo[3,4-b]pyridin-4-yl)oxy)-3-fluorophenyl)-5-(4-fluorophenyl)-6-oxo-2,3,5,6-tetrahydrofuro[3,2-c]pyridine-7-carboxamide], it took 1.57 nM to reach half-maximal inhibition in test [2] (IC50).

With `Cn1cc(-c2cc3nccc(Oc4ccc(NC(=O)c5c6c(cn(-c7ccc(F)cc7)c5=O)CCO6)cc4F)c3s2)cn1` [Example 10, N-(3-Fluoro-4-((2-(1-methyl-1H-pyrazol-4-yl)thieno[3,2-b]pyridin-7-yl)oxy)phenyl)-5-(4-fluorophenyl)-6-oxo-2,3,5,6-tetrahydrofuro[3,2-c]pyridine-7-carboxamide], in test [1], the cytotoxicity at 1 µM came out at 22% and the cytotoxicity at 5 µM came to 21.9%. Besides, in test [2], the IC50 was 0.92 nM. The molecule `Cc1nc2c(Oc3ccc(NC(=O)c4c5c(cn(-c6ccc(F)cc6)c4=O)CCO5)cc3F)ccnc2[nH]1` [Example 67, N-(3-Fluoro-4-((2-methyl-3H-imidazo[4,5-b]pyridin-7-yl)oxy)phenyl)-5-(4-fluorophenyl)-6-oxo-2,3,5,6-tetrahydrofuro[3,2-c]pyridine-7-carboxamide] showed a half-inhibitory concentration (IC50) in test [2] of 15 nM. `O=C(Nc1ccc(Oc2ccnc(NC3CCOCC3)c2)c(F)c1)c1c2c(cn(-c3ccc(F)cc3)c1=O)CCO2` [Example 60, N-(3-Fluoro-4-((2-((tetrahydro-2H-pyran-4-yl)amino)pyridin-4-yl)oxy)phenyl)-5-(4-fluorophenyl)-6-oxo-2,3,5,6-tetrahydrofuro[3,2-c]pyridine-7-carboxamide]: 13.1 nM corresponded to half-maximal inhibition in test [2] (IC50). Turning to `CN1CCC(Nc2cc(Oc3ccc(NC(=O)c4c5c(cn(-c6ccc(F)cc6)c4=O)CCO5)cc3F)ncn2)CC1` [Example 61, N-(3-Fluoro-4-((6-((1-methylpiperidin-4-yl)amino)pyrimidin-4-yl)oxy)phenyl)-5-(4-fluorophenyl)-6-oxo-2,3,5,6-tetrahydrofuro[3,2-c]pyridine-7-carboxamide], the 50% inhibitory concentration (IC50) in test [2] stood at 156 nM. For `O=C(Nc1ccc(Oc2cc(NC3CCOCC3)ncn2)c(F)c1)c1c2c(cn(-c3ccc(F)cc3)c1=O)CCO2` [Example 59], in test [2], the half-inhibitory concentration (IC50) came to 2.24 nM. In test [2], `O=C(Nc1ccc(Oc2ccnc3[nH]ccc23)c(F)c1)c1c2c(cn(-c3ccc(F)cc3)c1=O)CCO2` [Example 65, N-(4-((1H-pyrrolo[2,3-b]pyridin-4-yl)oxy)-3-fluorophenyl)-5-(4-fluorophenyl)-6-oxo-2,3,5,6-tetrahydrofuro[3,2-c]pyridine-7-carboxamide] gave an IC50 of 1.72 nM.
